Consider 1 molecule from article PMC10375895, “Repurposed Fenoprofen Targeting SaeR Attenuates Staphylococcus aureus Virulence in Implant-Associated Infections” (ACS Central Science, 2023).

Molecules are shown by their SMILES.

In general, Kd refers to a measure of binding affinity in units of concentration. Higher therefore signals weaker binding.

For the test, the target named is SaeR (response regulator) (Staphylococcus aureus, UniProt Q2G2G2). The test can be described thus: SPR titration with purified SaeR ([…]); EMSA shows loss of hla promoter DNA binding. A general note: In EMSA bound probe runs differently from free probe, usually more slowly.
SaeR (response regulator), sequence (Q2G2G2 whole entry): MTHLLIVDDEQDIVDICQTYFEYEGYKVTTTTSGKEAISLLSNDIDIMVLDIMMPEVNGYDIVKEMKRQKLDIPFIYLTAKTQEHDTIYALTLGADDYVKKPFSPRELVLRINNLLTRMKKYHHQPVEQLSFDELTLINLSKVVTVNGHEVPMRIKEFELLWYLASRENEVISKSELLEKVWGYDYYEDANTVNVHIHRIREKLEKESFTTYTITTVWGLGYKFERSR

Molecule `CC(C(=O)O)c1cccc(Oc2ccccc2)c1` (stereo not shown) [fenoprofen] had a Kd of 16.5 µM.
